Measurements published in patent US8816121B2, “GLP-1 receptor stabilizers and modulators” (Receptos, Inc., priority 2010, dated 2014).

Experiments:
GLP-1R [1] = target: T1, GLP-1R (Homo sapiens, UniProt P43220); assay: GLP-1 PAM EC20 assay: dosing compound in the presence of fixed GLP-1 (9-36), direct cAMP response; format: cell-based; conditions: compound dose response in presence of EC20 GLP-1 (9-36); for EC50: GLP-1R CRE-bla CHO-K1 cells; for EC20 GLP-1 (9-36) PAM max cAMP: total cAMP from standard curve
T1 construct: host or cells: CRE-bla CHO-K1
T1 sequence (P43220 24-463): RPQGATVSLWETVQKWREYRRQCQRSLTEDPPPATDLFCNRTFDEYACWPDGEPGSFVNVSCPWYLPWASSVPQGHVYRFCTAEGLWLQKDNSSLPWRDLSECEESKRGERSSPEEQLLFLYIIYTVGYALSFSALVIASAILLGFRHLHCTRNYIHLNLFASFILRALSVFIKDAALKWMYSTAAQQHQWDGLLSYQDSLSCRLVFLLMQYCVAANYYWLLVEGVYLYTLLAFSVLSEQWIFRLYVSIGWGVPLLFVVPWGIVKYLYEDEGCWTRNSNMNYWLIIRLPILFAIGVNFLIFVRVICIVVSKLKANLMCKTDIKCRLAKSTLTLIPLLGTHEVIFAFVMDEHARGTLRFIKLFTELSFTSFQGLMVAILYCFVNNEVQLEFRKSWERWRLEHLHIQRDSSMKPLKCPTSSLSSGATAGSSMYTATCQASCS
T1 sequence (P01275 100-127 partner limits assumed): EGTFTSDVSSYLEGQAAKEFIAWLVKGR
Protocol: GLP-1 PAM EC20 Assay: Dosing Compound in the Presence of Fixed GLP-1 (9-36)-Direct cAMP Response
GLP-1R CRE-bla CHO-K1 cells were seeded into 384-well white flat bottom plates at 10,000 cells/well/20 μL culture media (same culture media used for PAM shift assay) and incubated for 18 h at 37° C. in 5% CO2. Compound dose response curves (12-point) and a separate 30×EC20 GLP-1 (9-36) stock solution were generated in assay buffer (same assay buffer used for PAM shift assay) in presence of 1.5 mM IBMX and 12.5% DMSO. Cells were washed 1× with assay buffer prior to adding 3 μL of compound dose response curve and 0.5 μL EC20 GLP-1 (9-36) to 12 μL assay buffer and incubated for 30 min at 37° C. Direct detection of cAMP was carried out using DiscoveRx HitHunter cAMP kit according to manufacturer's instructions (substituting 5 μL Antibody portion with 2 μL) and luminescence was read using a SpectraMax M5 plate reader. Luminescence signal was converted to total cAMP using a cAMP standard curve and data was analyzed by non-linear regression to determine the EC50 values for cAMP dose response curves.

GLP-1R [2] = assay: Size exclusion chromatography peak shift assay (stability induction on GLP-1R); format: binding; conditions: relative to apo protein and a positive control; effect on dimer stability
From the text: Generation of GLP-1R Protein Used in the Stability Induction Assay
A synthetic gene for a modified GLP-1R enhanced for expression in insect cells was created using overlap extension PCR to encode the amino acid sequence containing a signal peptide, N-terminal Flag (Sigma) epitope tag, mGLP-1R, GFP and a 10× histidine tag.
This gene product was cloned into the insect cell transfer vector, pFastBac 1 (Invitrogen) for transposition into the baculovirus DNA hosted in the DH10Bac strain E. coli. […] High titer viral stock of the recombinant GLP-1R baculovirus was recovered and used to infect a healthy population of SF9 insect cells for expression under the control of the ^ie1GP64 baculovirus promoter (EMD biosciences).
Recombinant protein was isolated from the membranes of the insect cells by extraction using 1% β-dodecylmaltopyranoside followed by purification using immobilized metal affinity chromatography resin and standard protocols After elution the protein was analyzed by analytical size exclusion chromatography to determine its retention time relative to an unliganded receptor.
Size Exclusion Chromatography Peak Shift Assay—Characterization of Stability Induction for Compounds
The protein's hydrodynamic radius was analyzed on an analytical size exclusion chromatography column (Sepax Zenix SEC-300 250 mm×4.6 mm column) equilibrated with 20 mM Hepes pH 7.5, 500 mM NaCl, 2% v/v glycerol, 0.05% w/v DDM and 0.01% w/v CHS and attached to a Dionex Ultimate HPLC which continuously pumped running buffer at a flow rate of 0.5 mL/min. The HPLC was equipped with an ultraviolet absorption and a fluorescence detector which enabled detection of total protein absorbance and GFP fluorescent emission respectively. The peak profiles of the GLP-1R in the presence of multiple compounds could be determined from impure mixtures using fluorescence detection.
Each tested compound was assayed for its ability to alter the hydrodynamic radius. This change can manifest as either a positive or negative shift in retention time in the peak shift assay. A positive shift represents a decrease in apparent molecular weight of the complex, while a negative shift represents an increase in size. Compounds that result in a negative shift in retention time (i.e. increased size) may do so by destabilizing the receptor or by causing non-specific aggregation. Compounds that result in a positive shift in retention time (i.e. decreased size) may do so either by stabilizing the receptor in a more compact conformation or by disrupting the oligomeric state (e.g. Dimer→monomer transition).
For this assay we reported the relative shift in retention time of each compound with respect to the apo protein (without ligand) and a positive control.

Compound: CCCCCCCOc1ccc(C(=O)Oc2ccc(C[C@H](NC(=O)c3ccc(NC(=O)Cc4ccc(OC)cc4)cc3)C(=O)O)cc2)cc1 [Compound 178, (S)-3-(4-((4-(heptyloxy)benzoyl)oxy)phenyl)-2-(4-(2-(4-methoxyphenyl)acetamido)benzamido)propanoic acid]
- EC50 (GLP-1R [1]): 6.31 µM
- EC20 GLP-1 (9-36) PAM max cAMP (GLP-1R [1]): 0.098 µM

Compound: COc1cc(CC(NC(=O)c2ccc(NC(=O)C3CCCC3)cc2)C(=O)O)ccc1OC(=O)c1ccccc1COC(=O)c1ccccc1 (stereo not shown) [Compound 270]
- PEAK SHIFT ASSAY (relative shift in retention time, normalized 0 to 5 positive, −5 to 0 negative) (GLP-1R [2]): 0

Compound: CCCCCCCOc1ccc(C(=O)Oc2ccc(C[C@H](NC(=O)c3ccc(OC)cc3)C(=O)O)cc2)cc1 [Compound 63]
- EC50 (GLP-1R [1]): > 10 µM
- EC20 GLP-1 (9-36) PAM max cAMP (GLP-1R [1]): 0.072 µM

Compound: CCCN(CCC)S(=O)(=O)c1ccc(C(=O)Oc2ccc(CC(NC(=O)c3ccc(NC(=O)C4CCCC4)cc3)C(=O)O)cc2OC)cc1 (stereo not shown) [Compound 271]
- PEAK SHIFT ASSAY (relative shift in retention time, normalized 0 to 5 positive, −5 to 0 negative) (GLP-1R [2]): 0.52

Compound: CCCCCCCOc1ccc(C(=O)Oc2ccc(CC(NC(=O)c3ccc(OC)cc3)C(=O)O)cc2OC)cc1 (stereo not shown) [Compound 2, 3-(4-((4-(heptyloxy)benzoyl)oxy)-3-methoxyphenyl)-2-(4-methoxybenzamido)propanoic acid]
- EC50 (GLP-1R [1]): > 20 µM
- EC20 GLP-1 (9-36) PAM max cAMP (GLP-1R [1]): 0.189 µM

Compound: COc1ccc(C(=O)Oc2ccc(CC(NC(=O)c3ccc(NC(=O)C4CCCC4)cc3)C(=O)O)cc2OC)cc1 (stereo not shown) [Compound 268]
- PEAK SHIFT ASSAY (relative shift in retention time, normalized 0 to 5 positive, −5 to 0 negative) (GLP-1R [2]): 0.46

Compound: COc1cc(CC(NC(=O)c2ccc(NC(=O)C3CCCC3)cc2)C(=O)O)ccc1OC(=O)c1ccc(NC(C)=O)cc1 (stereo not shown) [Compound 274, 3-(4-((4-acetamidobenzoyl)oxy)-3-methoxyphenyl)-2-(4-(cyclopentanecarboxamido)benzamido)propanoic acid]
- PEAK SHIFT ASSAY (relative shift in retention time, normalized 0 to 5 positive, −5 to 0 negative) (GLP-1R [2]): 0.83

Compound: CCCCCCCOc1ccc(C(=O)Oc2ccc(CC(NC(=O)c3ccc(NC(=O)Cc4ccc(OC)cc4)cc3)C(=O)O)cc2OC)cc1 (stereo not shown) [Compound 120, 3-(4-((4-(heptyloxy)benzoyl)oxy)-3-methoxyphenyl)-2-(4-(2-(4-methoxyphenyl)acetamido)benzamido)propanoic acid]
- EC50 (GLP-1R [1]): 4.05 µM
- EC20 GLP-1 (9-36) PAM max cAMP (GLP-1R [1]): 0.174 µM

Compound: CCCCCCCOc1ccc(C(=O)Oc2ccc(C[C@H](NC(=O)c3ccc(C(C)(C)C)cc3)C(=O)O)cc2)cc1 [Compound 57, (S)-2-(4-(tert-butyl)benzamido)-3-(4-((4-(heptyloxy)benzoyl)oxy)phenyl)propanoic acid]
- EC50 (GLP-1R [1]): 3.67 µM
- EC20 GLP-1 (9-36) PAM max cAMP (GLP-1R [1]): 0.237 µM

Compound: COc1cc(CC(NC(=O)c2ccc(NC(=O)C3CCCC3)cc2)C(=O)O)ccc1OC(=O)c1ccc(NC(=O)C2CCCC2)cc1 (stereo not shown) [Compound 272]
- PEAK SHIFT ASSAY (relative shift in retention time, normalized 0 to 5 positive, −5 to 0 negative) (GLP-1R [2]): −1.15

Compound: CCCCCCCOc1ccc(C(=O)Oc2ccc(C[C@H](NC(=O)c3ccc(NC(=O)COCc4ccccc4)cc3)C(=O)O)cc2)cc1 [Compound 179, (S)-2-(4-(2-(benzyloxy)acetamido)benzamido)-3-(4-((4-(heptyloxy)benzoyl)oxy)phenyl)propanoic acid]
- EC50 (GLP-1R [1]): 4.84 µM
- EC20 GLP-1 (9-36) PAM max cAMP (GLP-1R [1]): 0.16 µM

Compound: COc1cc(CC(NC(=O)c2ccc(NC(=O)C3CCCC3)cc2)C(=O)O)ccc1OC(=O)c1ccc(-c2ccccc2)cc1 (stereo not shown) [Compound 275]
- PEAK SHIFT ASSAY (relative shift in retention time, normalized 0 to 5 positive, −5 to 0 negative) (GLP-1R [2]): 0

Compound: COc1cc(CC(NC(=O)c2ccc(NC(=O)C3CCCC3)cc2)C(=O)O)ccc1OC(=O)c1ccccc1OC(C)=O (stereo not shown) [Compound 267]
- PEAK SHIFT ASSAY (relative shift in retention time, normalized 0 to 5 positive, −5 to 0 negative) (GLP-1R [2]): 0.25

Compound: CCCCCCCOc1ccc(C(=O)Oc2ccc(CC(NC(=O)c3ccc(NC(=O)COCc4ccccc4)cc3)C(=O)O)cc2OC)cc1 (stereo not shown) [Compound 103, 2-(4-(2-(benzyloxy)acetamido)benzamido)-3-(4-((4-(heptyloxy)benzoyl)oxy)-3-methoxyphenyl)propanoic acid]
- EC50 (GLP-1R [1]): 5.49 µM
- EC20 GLP-1 (9-36) PAM max cAMP (GLP-1R [1]): 0.204 µM

Compound: COc1cc(CC(NC(=O)c2ccc(NC(=O)C3CCCC3)cc2)C(=O)O)ccc1OC(=O)c1ccccc1 (stereo not shown) [Compound 266]
- PEAK SHIFT ASSAY (relative shift in retention time, normalized 0 to 5 positive, −5 to 0 negative) (GLP-1R [2]): 0.88

Compound: CCCCCCCOc1ccc(C(=O)Oc2ccc(CC(NC(=O)c3ccc(NC(=O)C4CCCC4)cc3)C(=O)O)cc2OC)cc1 (stereo not shown) [Compound 273, 2-(4-(cyclopentanecarboxamido)benzamido)-3-(4-((4-(heptyloxy)benzoyl)oxy)-3-methoxyphenyl)propanoic acid]
- EC50 (GLP-1R [1]): > 10 µM
- EC20 GLP-1 (9-36) PAM max cAMP (GLP-1R [1]): 0.027 µM
- PEAK SHIFT ASSAY (relative shift in retention time, normalized 0 to 5 positive, −5 to 0 negative) (GLP-1R [2]): 0.69

Compound: CCCCCCCOc1ccc(C(=O)Oc2ccc([C@H](NC(=O)c3ccc(NC(=O)Cc4ccc(OC)cc4)cc3)C(=O)O)cc2)cc1 [Compound 263, (S)-2-(4-((4-(heptyloxy)benzoyl)oxy)phenyl)-2-(4-(2-(4-methoxyphenyl)acetamido)benzamido)acetic acid]
- EC50 (GLP-1R [1]): 2.78 µM
- EC20 GLP-1 (9-36) PAM max cAMP (GLP-1R [1]): 0.216 µM

Compound: COc1cc(CC(NC(=O)c2ccc(NC(=O)C3CCCC3)cc2)C(=O)O)ccc1OC(=O)c1ccc(C#N)cc1 (stereo not shown) [Compound 269]
- PEAK SHIFT ASSAY (relative shift in retention time, normalized 0 to 5 positive, −5 to 0 negative) (GLP-1R [2]): 0.34
